# Source: patent US9795687B2, “Modularly assembled small molecules for the treatment of myotonic dystrophy type 1” (The Scripps Research Institute, priority 2013, dated 2017)
# Test system: r(CUG)12
# Assay: SPR binding kinetics to r(CUG)12
# Method: The binding of 2H-K4NMe to various RNAs including r(CUG)12, r(CAG)12, r(AU)12 and r(GC)δ was studied by surface plasmon resonance (SPR) spectrometry. […] In summary, 2H-K4NMe is selective for r(CUG)12 by ˜30-100-fold over the other RNAs studied (Table 2). In general, it has a faster association rate (kon) and a slower dissociation rate (koff) when binding to r(CUG)12 compared to the other RNAs.
# On rates, off rates and Kobs values were measured using a ForteBio OctetRed spectrophotometer and Streptavidin SA dip-and-read biosensors (ForteBio). Sensors were pre-equilibrated in 1X Kinetics Buffer (ForteBio) prior to beginning measurements. 5′-Biotinylated r(CUG)12 was folded by heating in 1X Kinetics Buffer at 60° C. for 5 min followed by slow cooling to room temperature on the bench top. Measurements were completed by incubating sensors sequentially in 200 μL of: 1X Kinetics Buffer, 540 nM 5′-biotinylated RNA, 1X Kinetics Buffer, compound of interest or MBNL1 (varying concentrations; seven 1:2 dilutions in 1X Kinetics Buffer), and finally 1X Kinetics Buffer. Data were fit using ForteBio's Data Analysis 7.0 software. MBNL1 and II (monomer) data were fit using a 1:1 model. This model fits one analyte in solution binding to one binding site on the surface. 2H-K4NMe and 2H-4 data were fit using a 2:1 heterogeneous ligand model. This model fits the binding of one analyte in solution to two different binding sites on the surface. Kinetic parameters are calculated for both interactions.
# [1] = r(CUG)12, two component binding isotherm
smiles,measurement,setting,value
C[C@@H](C(=O)N(C)[C@@H](C)C(=O)N(C)[C@@H](C)C(=O)N(C)[C@@H](C)C(=O)N[C@@H](CCCCNC(=O)CCCOc1cccc(-c2nc3cc(-c4nc5cc(N6CCN(C)CC6)ccc5[nH]4)ccc3[nH]2)c1)C(N)=O)N(C)C(=O)CCCOc1cccc(-c2nc3ccc(-c4nc5cc(N6CCN(C)CC6)ccc5[nH]4)cc3[nH]2)c1 [Compound 2H-K4NMe],"binding to r(CUG)12, fold more tightly than MBNL1",,5 fold
same,selectivity for r(CUG)12 over the other RNAs studied,"over r(CAG)12, r(AU)12, r(GC)8",30-100 fold
same,"koff rate, fold slower than H",r(CUG)12,10 fold
same,"kon rate, fold faster than H",r(CUG)12,10 fold
same,"on rate, fold faster than MBNL1's",r(CUG)12,79 fold
same,koff (1),"r(CUG)12, SD ≦±10%, two component fit for dimers, one component for H monomer and MBNL1",0.00343 s⁻¹
same,Kd,"r(CUG)12, read-out: Kobs (1)",13.1 nM
same,koff (2),[1],0.05 s⁻¹
same,kon (2),[1],1870 M⁻¹ s⁻¹
same,kon (1),"r(CUG)12, two component fit for dimers, one component for H monomer and MBNL1",261000 M⁻¹ s⁻¹
